These results are taken from patent US20170037028A1 (BAYER PHARMA AKTIENGESELLSCHAFT, priority 2013, published 2017).

Broadly, the IC50 is the concentration needed to halve the response being measured.

The target in this assay is T1, GLUT1 (Homo sapiens, UniProt P11166).
T1 sequence (P11166 1-492): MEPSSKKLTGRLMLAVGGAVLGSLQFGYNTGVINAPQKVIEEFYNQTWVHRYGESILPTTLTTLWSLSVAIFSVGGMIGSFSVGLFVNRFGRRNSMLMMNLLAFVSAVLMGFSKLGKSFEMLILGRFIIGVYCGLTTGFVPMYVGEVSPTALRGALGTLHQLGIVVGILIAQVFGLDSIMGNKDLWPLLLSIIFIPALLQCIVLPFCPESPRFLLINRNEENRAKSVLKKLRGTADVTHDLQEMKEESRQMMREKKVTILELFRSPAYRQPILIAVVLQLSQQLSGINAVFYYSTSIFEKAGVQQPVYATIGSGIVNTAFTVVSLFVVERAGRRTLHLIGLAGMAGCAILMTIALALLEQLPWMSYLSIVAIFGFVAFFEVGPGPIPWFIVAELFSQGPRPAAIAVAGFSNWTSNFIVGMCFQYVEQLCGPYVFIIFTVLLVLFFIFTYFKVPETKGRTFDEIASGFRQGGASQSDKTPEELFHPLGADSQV
Kind of assay: Indirect measurement of GLUT1 activity by quantification of intracellular ATP levels (glucose induced ATP increase). In kind it is cell-based. More on the design: endogenous in cells; host or cells: DLD1 or CHO-K1. The following applies: read-out: IC50 regarding glucose induced ATP increase (GLUT1 inhibition). The method, boiled down:
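Intracellular ATP was measured by CellTiter-Glo luminescence as an indirect readout of transport: glucose-driven for GLUT1, fructose-driven for GLUT2. DLD1 or CHO-K1 cells were used alongside an oxidative phosphorylation inhibitor. Beforehand, cells were held overnight in glucose-free 1% FCS medium to deplete ATP.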
Take `Cc1c(NC(=O)c2cc(C(N)=O)nc3ccccc23)c(C(F)(F)F)nn1C(C)c1ccc(C#N)cc1` (racemic) [Example 333, (±)-N^4-{1-[1-(4-cyanophenyl)ethyl]-5-methyl-3-(trifluoromethyl)-1H-pyrazol-4-yl}quinoline-2,4-dicarboxamide]: the IC50 came to 0.6 nM.

`Cc1nn(Cc2ccc(C(=O)NCCOc3ccccc3F)cc2)c(C)c1NC(=O)c1cc(C(F)(F)F)nc2ccc(Br)cc12` [Example 1084]: the IC50 turned out to be 30.8 nM.

As for `Cc1ccc(C#N)c(Cn2nc(C(F)(F)F)c(NC(=O)c3cc(C(N)=O)nc4cc(F)ccc34)c2C)c1` [Example 1700], the IC50 stood at 38.6 nM.

For `COc1ccccc1Cn1nc(C)c(NC(=O)c2cc(C(F)(F)F)nc3ccc(Br)cc23)c1C` [Example 1274], the IC50 worked out at 3410 nM.

In the case of `CC(=O)c1cccc(Cn2nc(C(F)(F)F)c(NC(=O)c3cc(C(N)=O)nc4cc(F)c(Cl)cc34)c2C)c1` [Example 1621], the IC50 turned out to be 15.3 nM.

Consider `Cc1nn(Cc2ccc(C(=O)NCc3cccc(F)c3)cc2)c(C)c1NC(=O)c1cc(C(F)(F)F)nc2ccc(Br)cc12` [Example 1163], for which the IC50 amounted to 166 nM.

Take `Cc1nn(Cc2ccc(C(=O)NCCN(CCO)CCO)cc2)c(C)c1NC(=O)c1cc(C(F)(F)F)nc2ccc(Br)cc12` [Example 1121]: the IC50 worked out at 65.5 nM.

Take `Cc1c(NC(=O)c2cc(C(N)=O)nc3cccc(F)c23)c(C(F)(F)F)nn1Cc1ccc(C2CCC2)cc1` [Example 1618]: the IC50 came to 22.3 nM.

In the case of `Cc1nn(Cc2ccc(F)c(F)c2)c(C)c1NC(=O)c1cc(C(N)=O)nc2ccc(Br)cc12` [Example 1469], the IC50 turned out to be 5.5 nM.

With `COc1cc(C(=O)Nc2c(C)nn(CCOc3ccc(C#N)cc3)c2C)c2ccccc2n1` [Example 1348], the IC50 was 188 nM.

Consider `Cc1nn(Cc2ccc(C(=O)NCc3cccs3)cc2)c(C)c1NC(=O)c1cc(C(F)(F)F)nc2ccc(Br)cc12` [Example 1110], for which the IC50 worked out at 55.4 nM.

Turning to `Cc1nn(Cc2ccc(F)cc2)c(C)c1NC(=O)c1cc(C2CCC2)nc2ccc(Br)cc12` [Example 146, 6-bromo-2-cyclobutyl-N-[1-(4-fluorobenzyl)-3,5-dimethyl-1H-pyrazol-4-yl]quinoline-4-carboxamide], the IC50 turned out to be 7.9 nM.

Regarding `CSc1cc(C(=O)Nc2c(C)nn(Cc3ccc(C#N)cc3)c2C)c2ccccc2n1` [Example 381, N-[1-(4-cyanobenzyl)-3,5-dimethyl-1H-pyrazol-4-yl]-2-(methylsulfanyl)quinoline-4-carboxamide], the IC50 amounted to 9 nM.

For the molecule `Cc1nn(Cc2ncco2)c(C)c1NC(=O)c1cc(C(F)(F)F)nc2ccc(Br)cc12` [Example 1506], the IC50 stood at 35.1 nM.

Regarding `Cc1c(NC(=O)c2cc(C(N)=O)nc3ccc(Br)cc23)c(C(F)(F)F)nn1Cc1ccccc1C#N` [Example 274, 6-bromo-N^4-[1-(2-cyanobenzyl)-5-methyl-3-(trifluoromethyl)-1H-pyrazol-4-yl]quinoline-2,4-dicarboxamide], the IC50 is 1 nM.

With `CC(=O)c1cccc(Cn2nc(C)c(NC(=O)c3cc(C(N)=O)nc4ccccc34)c2C)c1` [Example 1626], the IC50 was determined as 107 nM.

Turning to `COc1cc(C(=O)Nc2c(C)nn(Cc3cccc(C#N)c3)c2C)c2ccccc2n1` [Example 1286], the 50% inhibitory concentration (IC50) amounted to 6250 nM.

Consider `Cc1nn(Cc2ccc(F)cc2)c(C)c1NC(=O)c1cc(C(F)(F)F)nc2ccc(C(F)(F)F)cc12` [Example 98, N-[1-(4-fluorobenzyl)-3,5-dimethyl-1H-pyrazol-4-yl]-2,6-bis(trifluoromethyl)quinoline-4-carboxamide], for which the IC50 was 362 nM.

On to `Cc1ccc2nc(C)cc(C(=O)Nc3c(C)nn(Cc4cccc(C#N)c4)c3C)c2c1` [Example 1283], for which the IC50 came to 6250 nM.

For `Cc1ccc2nc(C)cc(C(=O)Nc3c(C)nn(Cc4ccccn4)c3C)c2c1` [Example 1261], the IC50 stood at 2290 nM.

`Cc1nn(Cc2ccc(C#N)cc2)c(C)c1NC(=O)c1cc(C(=O)NCCN(C)C)nc2cc(F)ccc12` [Example 1401]: the IC50 stood at 1240 nM.

Take `Cc1nn(Cc2ccc(F)cc2)c(C)c1NC(=O)c1cc(C(N)=O)nc2ccc(Br)cc12` [Example 119, 6-bromo-N^4-[1-(4-fluorobenzyl)-3,5-dimethyl-1H-pyrazol-4-yl]quinoline-2,4-dicarboxamide]: the IC50 is 1.3 nM.

As to `Cc1nn(Cc2ccc(C#N)nc2)c(C)c1NC(=O)c1cc(C(F)(F)F)nc2ccc(Br)cc12` [Example 147, 6-bromo-N-{1-[(6-cyanopyridin-3-yl)methyl]-3,5-dimethyl-1H-pyrazol-4-yl}-2-(trifluoromethyl)quinoline-4-carboxamide], the IC50 is 8.2 nM.

`Cc1nn(Cc2nc(C3CC3)no2)c(C)c1NC(=O)c1cc(C(F)(F)F)nc2ccc(Br)cc12` [Example 1502]: the IC50 was 213 nM.

`Cc1nn(Cc2ccc(C#N)cc2)c(C)c1NC(=O)c1cc(C(N)=O)nc2c(F)cc(Cl)cc12` [Example 252, 6-chloro-N^4-[1-(4-cyanobenzyl)-3,5-dimethyl-1H-pyrazol-4-yl]-8-fluoroquinoline-2,4-dicarboxamide]: the IC50 turned out to be 1.2 nM.

Consider `Cc1nn(Cc2ccccc2OC(F)(F)F)c(C)c1NC(=O)c1cc(C(F)(F)F)nc2ccc(Br)cc12` [Example 83, 6-bromo-N-{3,5-dimethyl-1-[2-(trifluoromethoxy)benzyl]-1H-pyrazol-4-yl}-2-(trifluoromethyl)quinoline-4-carboxamide], for which the IC50 came to 250 nM.

Regarding `Cc1c(NC(=O)c2cc(C(N)=O)nc3cc(F)ccc23)c(C(F)(F)F)nn1Cc1ccc(S(C)(=O)=O)cc1` [Example 1429], the IC50 stood at 29.4 nM.

`Cc1nn(Cc2ccc(C(=O)NCC3CCCCC3)cc2)c(C)c1NC(=O)c1cc(C(F)(F)F)nc2ccc(Br)cc12` [Example 1251]: the IC50 was determined as 1870 nM.

As to `Cc1c(NC(=O)c2cc(C(N)=O)nc3cc(F)ccc23)c(C(F)(F)F)nn1Cc1nc2ccccc2o1` [Example 1678], the IC50 came out at 57.7 nM.

On to `Cc1nn(Cc2ccc(C(N)=O)cn2)c(C)c1NC(=O)c1cc(C(N)=O)nc2ccc(F)cc12` [Example 1207], for which the IC50 came out at 477 nM.

On to `Cc1c(NC(=O)c2cc(S(C)(=N)=O)nc3ccccc23)c(C(F)(F)F)nn1Cc1ccc(C#N)cc1` (racemic) [Example 387, (±)-N-[1-(4-cyanobenzyl)-5-methyl-3-(trifluoromethyl)-1H-pyrazol-4-yl]-2-(S-methylsulfonimidoyl)quinoline-4-carboxamide], for which the half-inhibitory concentration (IC50) stood at 146 nM.

On to `COc1cc(C(=O)Nc2c(C(F)(F)F)nn(Cc3ccc(F)cc3)c2C)c2ccccc2n1` [Example 1436], for which the IC50 was 63.2 nM.

`Cc1nn(Cc2ccc(CC(=O)NCc3ccccc3)cc2)c(C)c1NC(=O)c1cc(C(F)(F)F)nc2ccc(Br)cc12` [Example 154, N-(1-{4-[2-(benzylamino)-2-oxoethyl]benzyl}-3,5-dimethyl-1H-pyrazol-4-yl)-6-bromo-2-(trifluoromethyl)quinoline-4-carboxamide]: the IC50 worked out at 196 nM.

In the case of `Cc1nn(Cc2cccnc2)c(C)c1NC(=O)c1cc(C(F)(F)F)nc2cc(F)c(F)cc12` [Example 196, N-[3,5-dimethyl-1-(pyridin-3-ylmethyl)-1H-pyrazol-4-yl]-6,7-difluoro-2-(trifluoromethyl)quinoline-4-carboxamide], the IC50 is 286 nM.

For the molecule `Cc1nn(Cc2cccc(OC(F)(F)F)c2)c(C)c1NC(=O)c1cc(C(N)=O)nc2cc(F)c(Cl)cc12` [Example 1583], the IC50 was determined as 11.4 nM.

As for `CNC(=O)Cc1ccc(Cn2nc(C)c(NC(=O)c3cc(C(F)(F)F)nc4ccc(Br)cc34)c2C)cc1` [Example 153, 6-bromo-N-(3,5-dimethyl-1-{4-[2-(methylamino)-2-oxoethyl]benzyl}-1H-pyrazol-4-yl)-2-(trifluoromethyl)quinoline-4-carboxamide], the IC50 stood at 95.8 nM.

Consider `CCc1nn(Cc2ccc(C#N)cc2)c(CC)c1NC(=O)c1cc(C(N)=O)nc2cc(F)ccc12` [Example 312, N^4-[1-(4-cyanobenzyl)-3,5-diethyl-1H-pyrazol-4-yl]-7-fluoroquinoline-2,4-dicarboxamide], for which the IC50 worked out at 35.5 nM.

As for `CCc1nc(Cn2nc(C)c(NC(=O)c3cc(C(N)=O)nc4ccccc34)c2C)no1` [Example 1500], the IC50 stood at 20.1 nM.

Consider `Cc1nn(Cc2c(F)cc(C#N)cc2F)c(C)c1NC(=O)c1cc(C(N)=O)nc2cc(F)c(Cl)cc12` [Example 392, 6-chloro-N^4-[1-(4-cyano-2,6-difluorobenzyl)-3,5-dimethyl-1H-pyrazol-4-yl]-7-fluoroquinoline-2,4-dicarboxamide], for which the IC50 amounted to 21.6 nM.

Regarding `CC(=O)c1cccc(Cn2nc(C(F)(F)F)c(NC(=O)c3cc(C(N)=O)nc4ccccc34)c2C)c1` [Example 1622], the IC50 was 50.1 nM.

For the molecule `COc1cc(C(=O)Nc2c(C)nn(Cc3ccn(C)n3)c2C)c2ccccc2n1` [Example 1526], the IC50 came out at 556 nM.

Take `Cc1nn(Cc2ccc(C(C)C)cc2)c(C)c1NC(=O)c1cc(C(N)=O)nc2ccccc12` [Example 1405]: the IC50 was determined as 8.2 nM.

Consider `COc1ccccc1Cn1nc(C)c(NC(=O)c2cc(C(F)(F)F)nc3cc(F)c(F)cc23)c1C` [Example 1270], for which the IC50 turned out to be 2890 nM.

In the case of `Cc1c(NC(=O)c2cc(C(N)=O)nc3cccc(F)c23)c(C(F)(F)F)nn1Cc1ncccc1C#N` [Example 1395], the IC50 is 12.6 nM.
